Measurements from PMC10454678, “Synthesis of hydroxy benzoin/benzil analogs and investigation of their antioxidant, antimicrobial, enzyme inhibition, and cytotoxic activities” (Turkish Journal of Chemistry, 2021).
In brackets after ≈: the same amount, converted by molar mass. Where two headings read alike, the source gives them in different places.

Columns and labels:
[1] = tested on: Escherichia coli ATCC 25922; experiment: MIC, microdilution, E. coli; format: cell-based; conditions: Escherichia coli
Bacillus cereus Roma709 = experiment: MIC, microdilution, B. cereus; format: cell-based; conditions: Bacillus cereus
[2] = Ferric reducing antioxidant power (FRAP) assay; conditions: Trolox equivalents; compounds 2 mg/mL, 30 °C 30 min, 595 nm
[3] = Copper ions reducing activity (CUPRAC); conditions: Trolox equivalents; 30 min dark, room temperature, 450 nm
[4] = tested on: Staphylococcus aureus ATCC25923; experiment: MIC, microdilution, S. aureus; format: cell-based; conditions: Staphylococcus aureus
α-glucosidase = experiment: α-Glucosidase inhibition; format: biochemical; conditions: PNPG, pH 6.8, 37 °C, 400 nm
Method: It was incubated at 37 °C for 15 min. Similarly, an enzyme-free blank was prepared. The reaction was stopped when sodium carbonate (50 μL, 0.2 M) was added.

[5] = tested on: Mycobacterium smegmatis ATCC607; experiment: MIC, microdilution, M. smegmatis; format: cell-based; conditions: Tub., BHI broth, 36 °C; for MIC: Mycolicibacterium smegmatis, ATCC607, 72 h, read-out: MIC Ms; for MIC Ms: 72 h
[6] = tested on: Pseudomonas aeruginosa ATCC27853; experiment: MIC, microdilution, P. aeruginosa; format: cell-based; conditions: Pseudomonas aeruginosa
[7] = tested on: Candida albicans ATCC60193; experiment: MIC, microdilution, C. albicans; format: cell-based; conditions: Candida albicans, read-out: MIC Ca
[8] = tested on: Yersinia pseudotuberculosis ATCC911; experiment: microbe, parasite or virus in culture; format: cell-based; conditions: Yersinia pseudotuberculosis, ATCC911, read-out: MIC Yp
[9] = tested on: Streptococcus mutans RSKK07038; experiment: MIC, microdilution, S. mutans; format: cell-based; conditions: Streptococcus mutans, read-out: MIC Sm
acetylcholinesterase = acetylcholinesterase (Homo sapiens, UniProt P22303); experiment: biochemical; conditions: Tris-HCl pH 8.0, 25 °C, 405 nm; read-out: AChE IC50 (converted)
[10] = tested on: Enterococcus faecalis ATCC29212; experiment: MIC, microdilution, E. faecalis; format: cell-based; conditions: Enterococcus faecalis
[11] = DPPH radical scavenging activity; conditions: 0.1 mM DPPH, 50 min dark, 517 nm
butyrylcholinesterase = butyrylcholinesterase (Homo sapiens, UniProt P06276); experiment: biochemical; conditions: Tris-HCl pH 8.0, 25 °C, 405 nm; read-out: BChE IC50 (converted)
[12] = tested on: human retinal normal cell line (RPE); experiment: MTT cell proliferation, RPE; conditions: Homo sapiens, 24 h; for GI50: read-out: GI50 RPE normal cell line; for IC50: read-out: IC50 RPE normal cell line
[13] = tested on: human cervical cancer cell line (HeLa); experiment: MTT cell proliferation, HeLa; conditions: Homo sapiens, HeLa, 24 h; for GI50: read-out: GI50 HeLa cell line; for IC50: read-out: IC50 HeLa cell line
[14] = tested on: Paenibacillus larvae DSM7030; experiment: MIC, microdilution, P. larvae; format: cell-based; conditions: Gram (+) nonpathogenic spore forming
[15] = ROMA709, Gram (+), Mueller-Hinton broth, 18-24 h, 36 °C, read-out: MIC Bc
[16] = ATCC25923, Gram (+), Mueller-Hinton broth, 18-24 h, 36 °C, read-out: MIC Sa
[17] = ATCC27853, Gram (-), Mueller-Hinton broth, 18-24 h, 36 °C, read-out: MIC Pa
[18] = ATCC60193, fungus, YEPD broth, 48 h, 36 °C
[19] = RSKK07038, Gram (+), BHI broth, 72 h, 36 °C
[20] = ATCC29212, Gram (+), Mueller-Hinton broth, 18-24 h, 36 °C, read-out: MIC Ef
[21] = ATCC25922, Gram (-), Mueller-Hinton broth, 18-24 h, 36 °C, read-out: MIC Ec

Sequence of acetylcholinesterase (P22303 32-614, species assumed): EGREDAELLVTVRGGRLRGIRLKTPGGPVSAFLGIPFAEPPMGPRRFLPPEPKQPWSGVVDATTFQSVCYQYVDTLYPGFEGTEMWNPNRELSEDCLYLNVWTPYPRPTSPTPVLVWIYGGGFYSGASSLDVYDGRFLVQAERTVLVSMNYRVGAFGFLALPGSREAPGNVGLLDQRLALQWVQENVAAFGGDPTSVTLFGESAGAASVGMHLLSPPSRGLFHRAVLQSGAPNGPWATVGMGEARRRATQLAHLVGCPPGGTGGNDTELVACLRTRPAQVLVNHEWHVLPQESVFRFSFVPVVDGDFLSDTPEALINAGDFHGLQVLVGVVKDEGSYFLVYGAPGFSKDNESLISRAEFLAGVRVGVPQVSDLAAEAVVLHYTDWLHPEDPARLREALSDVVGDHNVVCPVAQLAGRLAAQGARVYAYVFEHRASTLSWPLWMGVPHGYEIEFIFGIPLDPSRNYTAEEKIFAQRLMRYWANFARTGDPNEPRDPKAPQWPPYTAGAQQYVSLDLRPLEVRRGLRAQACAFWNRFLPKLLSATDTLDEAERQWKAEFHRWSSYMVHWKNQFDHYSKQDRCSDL
Sequence of butyrylcholinesterase (P06276 29-602): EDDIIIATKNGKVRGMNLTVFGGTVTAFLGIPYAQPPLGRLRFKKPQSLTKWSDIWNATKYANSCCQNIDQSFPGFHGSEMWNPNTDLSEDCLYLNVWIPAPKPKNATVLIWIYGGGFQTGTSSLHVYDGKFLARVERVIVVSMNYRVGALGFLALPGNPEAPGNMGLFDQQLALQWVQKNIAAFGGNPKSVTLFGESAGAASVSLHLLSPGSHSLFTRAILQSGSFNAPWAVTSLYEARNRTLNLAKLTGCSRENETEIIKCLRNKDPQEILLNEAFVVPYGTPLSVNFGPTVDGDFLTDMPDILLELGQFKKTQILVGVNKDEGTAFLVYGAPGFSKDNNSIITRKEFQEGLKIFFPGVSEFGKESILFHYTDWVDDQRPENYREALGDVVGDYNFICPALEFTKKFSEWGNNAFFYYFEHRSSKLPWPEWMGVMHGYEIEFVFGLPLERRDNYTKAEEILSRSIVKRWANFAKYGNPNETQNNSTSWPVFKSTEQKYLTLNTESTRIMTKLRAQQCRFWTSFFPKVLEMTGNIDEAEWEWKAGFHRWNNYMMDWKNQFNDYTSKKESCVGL

Structure (SMILES) | MIC ([1]; ATCC25922, read-out: MIC Ec) | MIC (Bacillus cereus Roma709; [15]) | FRAP, the iron reducing antioxidant power [2] | CUPRAC, copper reducing antioxidant power [3] | MIC [4, 16] | α-Glucosidase IC50 (α-glucosidase) | MIC [5] | MIC Ms [5] | MIC [6, 17] | MIC [7, 18] | MIC [8] | MIC [9, 19] | IC50 (acetylcholinesterase) | MIC [10, 20] | DPPH radical scavenging capacity (SC50) [11] | IC50 (butyrylcholinesterase) | MIC [1, 21] | GI50 [12] | IC50 [12] | GI50 [13] | also measured
O=C(C(=O)c1cccc(O)c1)c1ccccc1 [Compound 8, 1-(3-Hydroxyphenyl)-2-phenylethane-1,2-dione] | 167 µg/mL (≈ 738 µM) | 11 µg/mL (≈ 48.6 µM) | 1678 ± 64.6 μg/mL trolox/gram DW | 1095.00 ± 18.1 μg/mL trolox/gram DW | 11 µg/mL (≈ 48.6 µM) | >1000 µg/mL | 9 to 18 µg/mL (≈ 39.8 to 79.6 µM) | 11 µg/mL (≈ 48.6 µM) | 11 µg/mL (≈ 48.6 µM) | 41 µg/mL (≈ 181 µM) | 167 µg/mL (≈ 738 µM) | 21 µg/mL (≈ 92.8 µM) | > 4420 µM | 21 µg/mL (≈ 92.8 µM) | 13.56 ± 1.2 mg/mL | > 4420 µM | – | – | – | – | –
O=C(C(=O)c1ccc(O)cc1)c1ccccc1 [Compound 9, 1-(4-Hydroxyphenyl)-2-phenylethane-1,2-dione] | 108 µg/mL (≈ 477 µM) | – | 1946 ± 83.7 μg/mL trolox/gram DW | 48.33 ± 5.5 μg/mL trolox/gram DW | – | 47.78 µg/mL | 108 µg/mL (≈ 477 µM) | – | 108 µg/mL (≈ 477 µM) | 108 µg/mL (≈ 477 µM) | 217 µg/mL (≈ 959 µM) | – | 637 µM | 108 µg/mL (≈ 477 µM) | 8.64 ± 0.5 mg/mL | > 4420 µM | – | – | – | – | MIC (Bacillus cereus Roma709; ROMA709, read-out: MIC Bc): 108 µg/mL (≈ 477 µM); MIC ([4]; ATCC25923, read-out: MIC Sa): 108 µg/mL (≈ 477 µM)
O=C(C(=O)c1cccc(O)c1)c1cccc(O)c1 [Compound 11, 1,2-Bis(3-hydroxyphenyl)ethane-1,2-dione] | – | 18 µg/mL (≈ 74.3 µM) | 1340 ± 37.9 μg/mL trolox/gram DW | 175.00 ± 3.5 μg/mL trolox/gram DW | 9 µg/mL (≈ 37.2 µM) | 66.700 µg/mL | 9 to 18 µg/mL (≈ 37.2 to 74.3 µM) | 9 µg/mL (≈ 37.2 µM) | 18 µg/mL (≈ 74.3 µM) | 36 µg/mL (≈ 149 µM) | 145 µg/mL (≈ 599 µM) | 18 µg/mL (≈ 74.3 µM) | 257 µM | – | 10.03 ± 0.8 mg/mL | 1400 µM | 36 µg/mL (≈ 149 µM) | – | – | – | –
O=C(C(=O)c1cccc(O)c1)c1ccc(O)cc1 [Compound 12, 1-(4-Hydroxyphenyl)-2-(3-hydroxyphenyl)ethane-1,2-dione] | – | 75 µg/mL (≈ 310 µM) | 1555 ± 34.1 μg/mL trolox/gram DW | 155.00 ± 1.0 μg/mL trolox/gram DW | 38 µg/mL (≈ 157 µM) | 54.69 µg/mL | 9 to 18 µg/mL (≈ 37.2 to 74.3 µM) | 18 µg/mL (≈ 74.3 µM) | 75 µg/mL (≈ 310 µM) | 18 µg/mL (≈ 74.3 µM) | 38 µg/mL (≈ 157 µM) | – | 2070 µM | 18 µg/mL (≈ 74.3 µM) | 12.87 ± 0.9 mg/mL | 1910 µM | 75 µg/mL (≈ 310 µM) | 1.92 µg/mL (≈ 7.93 µM) | 105 µg/mL (≈ 434 µM) | 2.04 µg/mL (≈ 8.42 µM) | IC50 [13]: 85.2 µg/mL (≈ 352 µM)
O=C(C(=O)c1cc(O)cc(O)c1)c1cccc(O)c1 [Compound 13, 1-(3,5-Dihydroxyphenyl)-2-(3-hydroxyphenyl)ethane-1,2-dione] | 167 µg/mL (≈ 647 µM) | 11 µg/mL (≈ 42.6 µM) | 1844 ± 56.2 μg/mL trolox/gram DW | – | 11 µg/mL (≈ 42.6 µM) | >1000 µg/mL | 9 to 18 µg/mL (≈ 34.9 to 69.7 µM) | 11 µg/mL (≈ 42.6 µM) | – | – | 167 µg/mL (≈ 647 µM) | – | > 3870 µM | – | 9.42 ± 0.8 mg/mL | > 3870 µM | – | – | – | – | MIC ([6]; ATCC27853, read-out: MIC Pa): 11 µg/mL (≈ 42.6 µM); MIC ([7]; ATCC60193, 48 h): 41 µg/mL (≈ 159 µM); MIC ([9]; RSKK07038, 72 h): 21 µg/mL (≈ 81.3 µM); MIC ([10]; ATCC29212, read-out: MIC Ef): 21 µg/mL (≈ 81.3 µM)
O=C(C(=O)c1cccc(OC2O[C@H](CO)[C@@H](O)[C@H](O)[C@H]2O)c1)c1ccc(O)cc1 (stereo partly drawn) [Compound 25, 1-(3-O-β -D-Glucopyranosylphenyl)-2-(4-hydroxyphenyl)ethane-1,2-dione] | – | – | 2570.42 ± 25.01 μg/mL trolox/gram DW | 147.54 ± 25.04 μg/mL trolox/gram DW | – | >1000 µg/mL | 8 to 15 µg/mL (≈ 19.8 to 37.1 µM) | – | – | – | – | – | 562 µM | – | 26.33 ± 0.39 mg/mL | 331 µM | 8 to 15 µg/mL (≈ 19.8 to 37.1 µM) | 3.38 µg/mL (≈ 8.36 µM) | 102 µg/mL (≈ 252 µM) | 2.21 µg/mL (≈ 5.47 µM) | MIC [14]: 8 to 15 µg/mL (≈ 19.8 to 37.1 µM); IC50 [13]: 81.5 µg/mL (≈ 202 µM)
